For test [1], the system named is CRE-dependent transactivation. Description: CRE-dependent luciferase activity in HEK293 cultures stably transfected with WT-PS1. Conditions: presence of L-685,458, FIG. 9B. The format is cell-based, human. The procedure:
Transactivation assays. CRE-dependent transactivation was measured in the absence or presence of overexpression of PKA (pFC-PKA, Stratagene) by cotransfection with CRE-luciferase reporter plasmid (pCRE-Luc, Stratagene) and pSV-β-galactosidase vector (Promega) to evaluate transfection efficiency. CHOP-mediated transactivation was measured by cotransfection with the Gal4-fusion trans-activator plasmids (pFA-CHOP and pFR-Luc, Stratagene). 30 hours after transfection, luciferase and β-galactosidase activities were determined following manufacturer's instructions using a TD-20/20 luminometer (Turner Designs) and a DU-64 spectrophotometer (Beckman). Values were normalized to β-galactosidase activity and protein concentration.
HEK293 cultures stably transfected either with vector or WT-PS1 were co-transfected with pFC-PKA, pCRE-Luc, and pSV-β-galactosidase in the presence or absence of L-685,458 and then processed for CRE-dependent luciferase activity. Data in FIGS. 9A and B are the mean+/−s.e. of 4 experiments normalized to β-galactosidase activity and protein concentration. *, P<0.05; ***, P<0.001 (Student's t test).

The test system of the next test is N-cadherin. Description: N-cadherin processing in fibroblast cultures (Western blot, C32). The format is cell-based, mouse. Conditions: WT fibroblasts, L-685,458 (0.5 μM), 16 hours. As for the experimental part:
Extracts from PS1+/+ or PS1−/− mouse embryos were probed on WBs with either anti-cytoplasmic N-cadherin antibody (FIG. 7A, upper panel) or anti-PS I/CTF antibody 33B10 (FIG. 7A, lower panel). Extracts from PS1+/+ or PS1−/− fibroblast cultures were incubated for 16 hours in the absence or presence of DMSO, L-685,458 (0.5 μM) and probed on WBs with either C32 or 33B10 antibodies.
For orientation: In western blotting, separated proteins are transferred to a membrane and probed.

For another test, the system named is c-fos. The test is described as follows: c-fos mRNA (RT-PCR) and protein (Western blot) in N2a cells. The format is cell-based, mouse. The procedure: Reverse Transcriptase (RT)-PCR Analysis. Total RNA was extracted from cells using a RNeasy Mini Kit (Qiagen) according to instructions by the manufacturer. Analysis of gene expression was performed using semiquantitative RT-PCR. The following primers were used: 5′-[…]-3′ (SEQ ID NO: 13) and 5′-[…]-3′ (SEQ ID NO: 14) for c-fos; 5′-[…]-3′ (SEQ ID NO: 15) and 5′-[…]-3′ (SEQ ID NO: 16) for gapdh.
N2a cells co-transfected with plasmids pCRE-luc, pFC-PKA, and pSV-β-galactosidase were incubated for 16 hours with DMSO or with L-685,458 ([…]) and CRE-dependent transactivation was measured as described above. Data in FIG. 10A are the mean+/−s.e. of 3 experiments normalized to β-galactosidase activity and protein concentration. *, P<0.05 (Student's t test). Total RNA isolated from N2a cells treated either with DMSO or with L-685,458, was analyzed by semiquantitative RT-PCR using specific primers for c-fos and gapdh. The graph in FIG. 10B represents the relative abundance of c-fos-specific PCR products following quantitation of the mRNA signals shown in the upper panel. Extract from N2a cells treated either with DMSO or with L-685,458, were probed on WBs with anti-c-fos or anti-β-tubulin antibodies. Extract from PS1+/+ or PS1−/− mouse fibroblasts were probed on WBs with either anti-c-fos or anti-β-tubulin antibodies. Extract from PS1+/− or PS1−/− mouse embryonic brains were probed on WBs with anti-c-fos (FIG. 10E, upper panel), anti-b-tubulin (FIG. 10E, middle panel), or anti-PS1/CTF (FIG. 10E, lower panel) antibodies.

For a further test, the target named is T1, CBP (Mus musculus, UniProt P45481).
T1 construct: a process that relies on endogenous CBP and CREB; endogenous in cells; host or cells: L cells transfected with vector or pN-Cad/CTF2
T1 sequence (P45481 whole entry): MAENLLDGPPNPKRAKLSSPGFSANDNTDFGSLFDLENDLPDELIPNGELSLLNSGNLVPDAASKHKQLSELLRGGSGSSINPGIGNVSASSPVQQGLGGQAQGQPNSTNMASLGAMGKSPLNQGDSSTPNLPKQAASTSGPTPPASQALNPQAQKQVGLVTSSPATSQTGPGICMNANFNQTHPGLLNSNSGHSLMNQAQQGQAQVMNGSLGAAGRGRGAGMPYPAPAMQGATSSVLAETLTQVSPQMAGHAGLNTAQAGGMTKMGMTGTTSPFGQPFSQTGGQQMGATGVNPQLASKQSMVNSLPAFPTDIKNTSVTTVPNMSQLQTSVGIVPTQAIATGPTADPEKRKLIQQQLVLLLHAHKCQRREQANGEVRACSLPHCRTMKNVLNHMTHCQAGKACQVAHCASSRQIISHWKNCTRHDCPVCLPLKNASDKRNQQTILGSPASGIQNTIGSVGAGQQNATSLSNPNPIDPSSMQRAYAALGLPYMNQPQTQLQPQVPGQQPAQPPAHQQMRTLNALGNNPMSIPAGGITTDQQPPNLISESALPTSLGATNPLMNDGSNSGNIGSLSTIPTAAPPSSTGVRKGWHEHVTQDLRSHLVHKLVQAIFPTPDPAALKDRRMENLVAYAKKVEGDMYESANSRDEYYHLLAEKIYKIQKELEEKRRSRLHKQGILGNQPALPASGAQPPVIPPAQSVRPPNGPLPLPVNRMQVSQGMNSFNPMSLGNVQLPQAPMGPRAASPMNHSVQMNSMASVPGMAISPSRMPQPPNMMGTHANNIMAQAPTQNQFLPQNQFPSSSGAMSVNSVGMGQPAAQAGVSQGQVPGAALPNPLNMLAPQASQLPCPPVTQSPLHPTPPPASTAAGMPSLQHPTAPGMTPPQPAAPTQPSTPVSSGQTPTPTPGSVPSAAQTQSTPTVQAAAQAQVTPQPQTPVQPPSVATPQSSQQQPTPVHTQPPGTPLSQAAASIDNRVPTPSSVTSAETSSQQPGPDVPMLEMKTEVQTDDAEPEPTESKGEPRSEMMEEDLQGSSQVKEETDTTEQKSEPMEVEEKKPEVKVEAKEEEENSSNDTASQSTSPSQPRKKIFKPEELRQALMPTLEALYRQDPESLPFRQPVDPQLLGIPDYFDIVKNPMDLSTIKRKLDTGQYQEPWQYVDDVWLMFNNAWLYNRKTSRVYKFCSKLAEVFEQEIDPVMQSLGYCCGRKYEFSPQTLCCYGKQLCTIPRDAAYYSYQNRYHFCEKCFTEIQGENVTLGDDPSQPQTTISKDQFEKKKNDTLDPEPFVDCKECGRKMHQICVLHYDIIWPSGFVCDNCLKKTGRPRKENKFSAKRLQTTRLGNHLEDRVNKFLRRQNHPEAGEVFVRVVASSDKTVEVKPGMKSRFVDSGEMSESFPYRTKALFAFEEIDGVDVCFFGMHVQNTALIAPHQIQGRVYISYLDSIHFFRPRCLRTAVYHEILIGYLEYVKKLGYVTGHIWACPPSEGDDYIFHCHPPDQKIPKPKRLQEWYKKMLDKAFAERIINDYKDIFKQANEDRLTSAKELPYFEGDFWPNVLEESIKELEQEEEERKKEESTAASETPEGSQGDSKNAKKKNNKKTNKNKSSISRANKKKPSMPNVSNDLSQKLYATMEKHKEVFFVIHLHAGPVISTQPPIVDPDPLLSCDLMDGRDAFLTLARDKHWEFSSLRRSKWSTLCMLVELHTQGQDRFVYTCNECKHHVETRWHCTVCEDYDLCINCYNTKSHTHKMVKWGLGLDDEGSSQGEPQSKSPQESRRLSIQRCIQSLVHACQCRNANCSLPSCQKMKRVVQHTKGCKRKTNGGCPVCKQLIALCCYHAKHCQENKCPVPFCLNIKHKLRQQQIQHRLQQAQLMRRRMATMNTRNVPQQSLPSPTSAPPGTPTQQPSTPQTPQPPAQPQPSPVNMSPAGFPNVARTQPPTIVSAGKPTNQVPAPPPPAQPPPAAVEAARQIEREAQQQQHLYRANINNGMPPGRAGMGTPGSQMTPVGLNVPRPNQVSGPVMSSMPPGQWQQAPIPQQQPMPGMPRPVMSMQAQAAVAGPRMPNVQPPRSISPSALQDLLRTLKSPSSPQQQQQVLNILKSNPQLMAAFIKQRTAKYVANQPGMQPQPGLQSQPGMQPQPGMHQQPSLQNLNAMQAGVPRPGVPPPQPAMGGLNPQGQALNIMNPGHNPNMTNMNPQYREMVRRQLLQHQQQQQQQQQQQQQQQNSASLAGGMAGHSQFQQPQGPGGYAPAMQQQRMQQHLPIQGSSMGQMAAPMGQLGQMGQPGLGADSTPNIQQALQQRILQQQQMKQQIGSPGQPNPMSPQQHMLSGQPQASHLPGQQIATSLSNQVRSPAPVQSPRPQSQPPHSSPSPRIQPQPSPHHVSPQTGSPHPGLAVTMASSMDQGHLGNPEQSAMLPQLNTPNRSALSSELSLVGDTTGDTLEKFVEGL
Description: Co-immunoprecipitation in pN-Cad/CTF2-transfected L cells. It is filed as binding. Conditions: FIG. 11B. As for the experimental part: Immunoprecipitations (IPs), immunoblotting and immunofluorescence. IPs were performed as described by Marambaud et al. (2002) EMBO J. 21: 1948-1956 in 4° C. HEPES buffer (25 mM HEPES, pH 7.4, 150 mM NaCl, 1× Complete protease inhibitor cocktail, Roche) containing 0.5% Nonidet P40 (NP40). For western blot (WB) analysis, cells were solubilized in 4° C. RIPA buffer (50 mM Tris-HCl, pH 8, 150 mM NaCl, 0.1% SDS, 1% NP-40, 0.5% sodium deoxycholate, 1× Complete protease inhibitor cocktail) as described by Marambaud et al. (2002). Immunofluorescence was performed as described by Georgakopoulos et al. (1999) with the following modifications: to visualize nuclei, cells were treated for 5 minutes with 4′,6-diamidino-2-phenylndole (DAPI, 1:5000; Sigma). Fluorescence microscopy and digital image acquisition were carried out using an Axioskop2 microscope (Zeizz).
To determine how N-Cad/CTF2 affects CREB-mediated transcription, the following experiments were performed. L cells transfected either with vector (vector) or pN-Cad/CTF2 (N-Cad/CTF2) plasmids were fractionated into nuclear and cytosolic fractions, and probed on WBs with anti-CBP (FIG. 11A, panel a), anti-N-cadherin (FIG. 11A, panel b), anti-β-tubulin (FIG. 11A, panel c) or anti-phosphorylated CREB (P-CREB; FIG. 11A, panel d) antibodies. […] L cells transiently transfected with pN-Cad/CTF2 were analyzed by immunofluorescence staining. […]

As for `CC(C)C[C@H](NC(=O)[C@H](Cc1ccccc1)C[C@@H](O)[C@H](Cc1ccccc1)NC(=O)OC(C)(C)C)C(=O)N[C@@H](Cc1ccccc1)C(N)=O` [L-685,458], the “decrease of CRE-dependent transactivation caused by PS1 overexpression” value in test [1] is “reversed”. In addition, the “40 kDa peptide N-Cad/CTF1” value with N-cadherin is listed as “accumulates”. Also, in the test on c-fos (L-685,458, FIGS. 10B and 10C), the “gapdh mRNA and β-tubulin” value is recorded as “remained unchanged”. Moreover, the “c-fos mRNA” value in the test on c-fos (L-685,458 vs untreated controls, FIG. 10B) is “stimulated”. In the test on c-fos (L-685,458 vs untreated controls, FIG. 10C), the c-fos protein entry is given as “stimulated”.

B1: N-Cad/CTF2: chicken cytoplasmic domain of N-cadherin (N-Cad/CTF2) inserted into vector pECE, expressed in L cells (protein)
chain: KRRDKERQAKQLLIDPEDDVRDNILKYDEEGGGEEDQDYDLSQLQQPDTVEPDAIKPVGIRRLDERPIHAEPQYPVRSAAPHPGDIGDFINEGLKAADNDPTAPPYDSLLVFDYEGSGSTAGSLSSLNSSSSGGEQDYDYLNDWGPRFKKLADMYGGGDD
For B1, the “co-immunoprecipitation of N-Cad/CTF2 with CBP” value with CBP is reported as “co-immunoprecipitates with CBP”.

Source of the values: patent US7884067B2, “Peptides derived from cadherin and methods of use thereof” (Mount Sinai School of Medicine of New York University, priority 2001, dated 2011).
